Assay results reported in US11014896B2, “TRPA1 and TRPV4 inhibitors and methods of using the same for organ-specific inflammation and itch” (Duke University, priority 2014, dated 2021).
“Also recorded” adds a separate entry of the source.

Key:
[1] = molecular target: T1, human TRPA1 (Homo sapiens, UniProt O75762); experiment: Ca2+ transient in N2a cells transfected with human TRPA1; type: cell-based
T1 construct: expressed in transfected cells; host or cells: N2a cells, pcDNA3.1 plasmid, co-transfected with an eGFP plasmid
T1 sequence (O75762 whole entry): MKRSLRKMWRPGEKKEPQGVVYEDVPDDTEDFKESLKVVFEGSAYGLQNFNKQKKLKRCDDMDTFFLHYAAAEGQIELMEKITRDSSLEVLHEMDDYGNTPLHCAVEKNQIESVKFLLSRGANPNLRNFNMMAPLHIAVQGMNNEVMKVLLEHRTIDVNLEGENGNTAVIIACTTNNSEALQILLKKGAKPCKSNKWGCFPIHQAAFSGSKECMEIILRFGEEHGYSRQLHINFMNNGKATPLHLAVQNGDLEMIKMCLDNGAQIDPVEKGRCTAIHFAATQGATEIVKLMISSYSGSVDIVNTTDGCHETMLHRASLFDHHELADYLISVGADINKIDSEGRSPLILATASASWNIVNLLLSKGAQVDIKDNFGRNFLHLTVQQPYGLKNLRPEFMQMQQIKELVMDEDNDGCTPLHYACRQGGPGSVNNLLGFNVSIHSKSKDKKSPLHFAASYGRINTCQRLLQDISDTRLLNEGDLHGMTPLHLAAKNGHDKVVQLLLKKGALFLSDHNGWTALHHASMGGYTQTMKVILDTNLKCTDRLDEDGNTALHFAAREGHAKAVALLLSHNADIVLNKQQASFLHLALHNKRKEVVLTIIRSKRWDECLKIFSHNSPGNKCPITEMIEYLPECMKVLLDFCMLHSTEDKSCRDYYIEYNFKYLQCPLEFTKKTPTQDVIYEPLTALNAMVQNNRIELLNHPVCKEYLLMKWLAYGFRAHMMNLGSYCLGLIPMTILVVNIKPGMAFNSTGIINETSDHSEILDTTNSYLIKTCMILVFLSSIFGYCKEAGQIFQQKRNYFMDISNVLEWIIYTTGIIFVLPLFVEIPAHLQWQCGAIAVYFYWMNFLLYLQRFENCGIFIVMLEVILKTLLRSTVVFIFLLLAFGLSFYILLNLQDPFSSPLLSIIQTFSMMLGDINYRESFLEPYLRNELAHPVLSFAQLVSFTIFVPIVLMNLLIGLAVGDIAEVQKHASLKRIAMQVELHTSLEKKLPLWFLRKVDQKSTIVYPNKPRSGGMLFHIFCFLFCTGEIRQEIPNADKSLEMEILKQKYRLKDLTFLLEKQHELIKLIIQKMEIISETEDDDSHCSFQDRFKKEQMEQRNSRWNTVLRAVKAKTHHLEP
Experimental: Compounds were tested for their effect on TRPA1. N2a permanent cells were transfected with human TRPA1 cDNA, using a pcDNA3.1 expression plasmid. They were co-transfected with eGFP-expressing plasmid, or, for control, with eGFP plasmid only.

[2] = UVB-overexposure evoked nocifensive behavior (mouse model for sunburn), topical treatment; type: in vivo; conditions: 0.5 mM in 40 μL, n=4/group
Experimental: Compounds were tested for their effect on nocifensive behavior (response to pain) following UVB overexposure. Behavioral tests were performed to evaluate the decrease in withdrawal thresholds in response to mechanical von Frey hair or thermal stimuli applied to hind paws. The Von-Frey apparatus (Ugo Basile) applied a mechanical stimulus with a flexible steel wire from underneath the hind paw. The force leading to withdrawal was determined. For the thermal stimuli test, paws were stimulated with heat from underneath applied by an infrared beam (Hargreave's test apparatus; Ugo Basile), and withdrawal latencies were recorded. The withdrawal thresholds were ascertained before and after UV exposure. Mice were exposed to UVB 3-5 days after the last application of tam/oil, using a Bio-Rad Gel Doc 2000 UV transilluminator (302 nm) for 5 min with an exposure of 600 mJ/cm^2. This represents 5-10 times the minimal erythema-inducing dose, in keeping with the rationale of inducing sunburn and studying sunburn-evoked pain.

[3] = molecular target: TRPV4 (Homo sapiens, UniProt Q9HBA0); experiment: TRPV4-mediated calcium influx in N2a cells with targeted expression of human TRPV4; type: cell-based; design: expressed in transfected cells; host or cells: N2a cells; conditions: 2.5 μM inhibitor, pre-incubation 10 min; TRPV4 activated with 10 nM GSK101
TRPV4 (Homo sapiens, UniProt Q9HBA0), sequence (Q9HBA0 whole entry): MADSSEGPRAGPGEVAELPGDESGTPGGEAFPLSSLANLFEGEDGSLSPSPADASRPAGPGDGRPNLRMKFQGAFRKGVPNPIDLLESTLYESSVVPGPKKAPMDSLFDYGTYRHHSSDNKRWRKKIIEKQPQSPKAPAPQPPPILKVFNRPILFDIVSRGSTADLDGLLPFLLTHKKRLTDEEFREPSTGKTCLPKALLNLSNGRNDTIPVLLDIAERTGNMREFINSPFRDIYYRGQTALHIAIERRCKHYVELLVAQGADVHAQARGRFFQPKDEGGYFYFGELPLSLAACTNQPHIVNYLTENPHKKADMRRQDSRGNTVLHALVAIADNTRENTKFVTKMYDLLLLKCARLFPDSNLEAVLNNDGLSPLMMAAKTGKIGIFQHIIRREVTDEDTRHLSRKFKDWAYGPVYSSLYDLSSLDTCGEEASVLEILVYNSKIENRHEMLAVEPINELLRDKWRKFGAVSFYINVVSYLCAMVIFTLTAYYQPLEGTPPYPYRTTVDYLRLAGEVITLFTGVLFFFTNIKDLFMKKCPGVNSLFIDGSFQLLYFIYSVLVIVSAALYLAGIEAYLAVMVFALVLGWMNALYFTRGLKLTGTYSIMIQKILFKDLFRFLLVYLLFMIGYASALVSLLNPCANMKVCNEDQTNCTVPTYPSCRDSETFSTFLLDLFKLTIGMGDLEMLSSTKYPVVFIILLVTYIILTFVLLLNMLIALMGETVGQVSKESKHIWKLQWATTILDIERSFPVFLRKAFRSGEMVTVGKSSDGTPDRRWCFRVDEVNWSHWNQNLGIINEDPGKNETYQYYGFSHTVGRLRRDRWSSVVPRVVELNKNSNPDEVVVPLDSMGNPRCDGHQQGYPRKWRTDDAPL
Experimental: Compounds (GSK205, 16-12, 16-13, 16-14, 16-18, 16-8, and 16-8/18hy) were tested for their effect on TRPV4-mediated calcium influx in N2a cultured cells with targeted expression of human TRPV4. Ca2+ imaging was performed according to Li et al. (Environ. Health Perspect. 2011, 119, 784-93) and Moore et al. (Proc. Natl. Acad. Sci. U.S.A. 2013, 110, E3225-E3234). Briefly, Ca2+ imaging of primary mouse epidermal keratinocytes (1° MK) in response to chemical activation of TRPV4 was conducted after loading with 2 μM fura2-AM, following a ratiometric Ca2+-imaging protocol with 340/380 nm blue light for dual excitation. Ratios of emissions were acquired at 0.5 Hz. ΔR/R0 was determined as the fraction of the increase of a given ratio over baseline ratio, divided by baseline ratio. For stimulation of cells with UVB, where fura-2 was not suitable because of the proximity of stimulation with 340/380 nm vs. 295 nm, 2 μM fluo4-AM was used instead. Ca2+ imaging was carried out at 488 nm excitation, acquisition of emissions at 0.5 Hz, expressed as ΔF/F0. TRPV4 was activated with 10 nM GSK101, a specific activator, which had no effect on RFP-transfected cells. Each of the […] compounds were added to a concentration of 2.5 μM, and its effect was observed.

[4] = Formalin-evoked nocifensive (rubbing) behavior, whisker-pad injection, in vivo pain model in mice; design: species or system mouse; conditions: for formalin-induced nocifensive behavior, time course: FIG. 21D; for formalin-induced nocifensive behavior, quantitation, in particular second phase: compounds pre-injected at 0.5 mM/10 μL into whiskerpad 15 min before 4% formalin
Experimental: Compounds were tested for their effect in reducing pain using an in vivo pain model in mice. For mouse formalin-evoked irritant behavior measurements, mice were well-fed, well-rested, and tested at the same time of day, at the same time-point of their circadian rhythm. They were allowed to acclimate to a plexiglas chamber for at least 30 min before testing, and received 10 μL subcutaneous injection of 4% of formalin (diluted from an aqueous solution of commercial 37% formaldehyde with normal saline (NS)) through a 30-gauge needle into the right whiskerpad, as further detailed in Luccarini et al. (J. Pain, 2006, 7, 908-914). Normal saline was used as control injection. After injection, mice were immediately placed back into the chamber and the rubbing behavior was recorded by a private consumer-type video-camera for a 45 min observation period. The recording time was divided into 9 blocks of 5 min, and a nociceptive score was determined per block by measuring the time that the animals spent rubbing the injected area predominantly with the ipsilateral fore-paw and rarely with hind-paw. This rubbing behavior with fore-paw is evoked by pain, which is distinct from itch behavior. Behavioral analysis was conducted by observers blinded to treatment.
To investigate the effects of the specific compounds GSK205, 16-8, and 16-8/18hy on formalin-induced nociceptive behavior, mice received a single subcutaneous injection of the compounds into the whiskerpad (10 μL, dissolved in 4% DMSO) 15 min before formalin injection. Control animals received the same volume of NS, 4% DMSO.

[5] = molecular target: T2, TRPV4 (Mus musculus, UniProt Q9EPK8); experiment: GSK101-evoked Ca++ transient in 1° MK; type: cell-based; conditions: 5 nM GSK101; GSK205 20 μM
T2 construct: endogenous in cells; host or cells: primary mouse epidermal keratinocytes (1° MK), wild type
T2 sequence (Q9EPK8 whole entry): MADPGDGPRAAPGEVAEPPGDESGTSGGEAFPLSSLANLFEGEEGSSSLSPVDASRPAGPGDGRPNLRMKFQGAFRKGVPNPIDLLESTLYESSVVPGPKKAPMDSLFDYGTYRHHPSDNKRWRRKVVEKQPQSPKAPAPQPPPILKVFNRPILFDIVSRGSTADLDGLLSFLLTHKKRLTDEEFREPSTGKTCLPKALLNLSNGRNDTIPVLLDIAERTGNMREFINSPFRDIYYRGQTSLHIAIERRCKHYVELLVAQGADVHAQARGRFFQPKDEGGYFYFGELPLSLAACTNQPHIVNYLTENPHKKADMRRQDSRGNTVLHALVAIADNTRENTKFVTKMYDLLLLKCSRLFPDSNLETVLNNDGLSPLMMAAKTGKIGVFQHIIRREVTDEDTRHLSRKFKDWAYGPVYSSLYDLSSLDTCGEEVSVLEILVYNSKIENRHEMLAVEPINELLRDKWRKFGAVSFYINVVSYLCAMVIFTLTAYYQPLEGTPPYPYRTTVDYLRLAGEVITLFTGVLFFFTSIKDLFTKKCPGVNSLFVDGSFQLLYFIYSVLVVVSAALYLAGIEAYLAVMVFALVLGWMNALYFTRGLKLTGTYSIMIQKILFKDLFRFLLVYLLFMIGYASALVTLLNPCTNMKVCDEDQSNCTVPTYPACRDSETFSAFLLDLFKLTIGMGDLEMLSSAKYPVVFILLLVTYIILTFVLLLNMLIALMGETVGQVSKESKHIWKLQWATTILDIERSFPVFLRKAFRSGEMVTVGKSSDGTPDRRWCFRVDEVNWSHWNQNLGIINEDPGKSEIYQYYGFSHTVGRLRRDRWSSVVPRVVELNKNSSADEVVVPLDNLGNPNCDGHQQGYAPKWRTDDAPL
Experimental: Ca++ imaging of mouse 1° MK in response to chemical activation of TRPV4 was conducted after loading with 2 μM fura2-AM, following a ratiometric Ca2+ imaging protocol with 340/380 nm […] for dual excitation. Ratios of emissions were acquired at 0.5 Hz. ΔR/R0 was determined as the fraction of the increase of a given ratio over baseline ratio, divided by baseline ratio. For stimulation of cells with UVB, where fura-2 was not suitable because of the proximity of stimulation with 340/380 nm and 295 nm, 2 μM fluo4-AM was used instead. Ca++ imaging was carried out at 488 nm excitation, acquisition of emissions at 0.5 Hz, expressed as ΔF/F0. In the custom-built UV optical system, UV LEDs were capped with a ball lens, a transparent optical window in the shape of a hemispherical lens (FIG. 2B). The LED output optical beam focused at 15-20 mm from the lens, with a spot diameter of approximately 1.5-2.0 mm (FIG. 2C). […] The thermal equilibration stage was set for physiological temperature. We confirmed the non-thermal nature of UVB stimulation using the customized 295 nm LED device in a dedicated experiment (FIG. 2D), thus confirming the specific modality of stimulation as UVB.

Row | inhibition of TRPA1 activity ([1]; doses below or equaling 25 μM) | SMILES | inhibitory activity against human TRPA1 ([1]; 5 μM compound) | UVB-overexposure evoked nocifensive behavior (response to pain) [2] | inhibition of TRPV4-mediated calcium influx (peak calcium concentration in the cells) [3] | formalin-induced nocifensive behavior at the 45-min time-point ([4]; 0.5 mM/10 μL, 45-min time-point) | formalin-induced nocifensive behavior, time course ([4]; 0.5 mM/10 μL) | formalin-induced nocifensive behavior, quantitation, in particular second phase [4] | GSK101-evoked Ca++ transient [5]
1 |  | CN(CCc1ccc(Nc2nc(-c3ccccc3)cs2)cc1)Cc1ccccc1 [Compound 16-8] | inhibitory activity | especially effective in reducing the response to pain | most potent | reduction to control levels | significantly attenuated nocifensive behavior | significant attenuation of nocifensive behavior | 
2 | did not inhibit TRPA1 activity | CN(CCc1ccc(Nc2nc(-c3cccnc3)cs2)cc1)Cc1ccccc1 [GSK205] |  | as effective as vehicle | very low potency |  | not different from control | lack of effect | eliminated; also recorded: completely blocked
